Assay results taken from the NIST ThermoML archive (doi:10.1016/j.tca.2006.05.010).
Numbers after ± are expanded uncertainties.

What was measured:
[1] = 101.33 kPa, Liquid, Vibrating tube method
[2] = molar heat capacity at constant pressure; conditions: 101.33 kPa, Liquid, Small sample (50 mg) DSC
[3] = refractive index (Na D-line) (dimensionless); conditions: 101.33 kPa, Liquid, Standard Abbe refractometry
[4] = excess molar enthalpy (molar enthalpy of mixing); xn = mol fraction of the nth substance listed; conditions: 308.15 K, 101 kPa, Liquid, Flow calorimetry
[5] = molar heat capacity at constant pressure; xn = mol fraction of the nth substance listed; conditions: 308.15 K, 101 kPa, Liquid, Small sample (50 mg) DSC

CCOCCOCC [1,2-diethoxyethane]
Conditions | mass density, [1] [kg/m3] | molar heat capacity at constant pressure, [2] [J/K/mol] | refractive index, [3]
288.15 K | – | 254.5 ± 3.9 | –
293.15 K | – | 255.3 ± 4 | –
298.15 K | 835.11 ± 0.15 | 257.5 ± 4 | 1.3897 ± 0.0004
303.15 K | – | 257.9 ± 4 | –
308.15 K | 826.026 ± 0.15 | 258.7 ± 4 | 1.3853 ± 0.0004
313.15 K | – | 259.5 ± 4 | –
318.15 K | – | 261.2 ± 4 | –
323.15 K | – | 262.9 ± 4.1 | –

CCOCCOCC [1,2-diethoxyethane] + C[S+](C)[O-]
Conditions | excess molar enthalpy [kcal/mol] | molar heat capacity at constant pressure [J/K/mol]
[4], x2 = 0.0765 | 0.0817 ± 0.0012 | –
[4], x2 = 0.1421 | 0.127 ± 0.00167 | –
[4], x2 = 0.199 | 0.155 ± 0.00191 | –
[4], x2 = 0.2488 | 0.172 ± 0.00215 | –
[4], x2 = 0.332 | 0.192 ± 0.00239 | –
[4], x2 = 0.3986 | 0.201 ± 0.00263 | –
[4], x2 = 0.4985 | 0.213 ± 0.00263 | –
[4], x2 = 0.5698 | 0.211 ± 0.00263 | –
[4], x2 = 0.6653 | 0.2 ± 0.00263 | –
[4], x2 = 0.7489 | 0.174 ± 0.00215 | –
[4], x2 = 0.799 | 0.152 ± 0.00191 | –
[4], x2 = 0.8564 | 0.12 ± 0.00167 | –
[4], x2 = 0.8883 | 0.0949 ± 0.0012 | –
[4], x2 = 0.9227 | 0.07 ± 0.000956 | –
[4], x2 = 0.9408 | 0.0586 ± 0.000956 | –
[4], x2 = 0.9598 | 0.0382 ± 0.000478 | –
[4], x2 = 0.9795 | 0.0198 ± 0.000478 | –
[5], x2 = 0.0627 | – | 252.8 ± 3.9
[5], x2 = 0.1317 | – | 246 ± 3.8
[5], x2 = 0.1895 | – | 240.7 ± 3.7
[5], x2 = 0.35 | – | 225 ± 3.5
[5], x2 = 0.4563 | – | 214.4 ± 3.3
[5], x2 = 0.5642 | – | 203.2 ± 3.1
[5], x2 = 0.635 | – | 195.8 ± 3
[5], x2 = 0.6718 | – | 191.9 ± 3
[5], x2 = 0.7514 | – | 183.1 ± 2.8
[5], x2 = 0.8274 | – | 174.7 ± 2.7
[5], x2 = 0.8881 | – | 167.7 ± 2.6
[5], x2 = 0.941 | – | 161.6 ± 2.5

COCCOC [1,2-dimethoxyethane]
Conditions | mass density, [1] [kg/m3] | molar heat capacity at constant pressure, [2] [J/K/mol] | refractive index, [3]
288.15 K | – | 188.7 ± 2.9 | –
293.15 K | – | 189 ± 2.9 | –
298.15 K | 861.9 ± 0.24 | 191 ± 3 | 1.3781 ± 0.0004
303.15 K | – | 192.2 ± 3 | –
308.15 K | 851.28 ± 0.24 | 193.4 ± 3 | 1.3726 ± 0.0004
313.15 K | – | 194.5 ± 3 | –
318.15 K | – | 195.8 ± 3 | –
323.15 K | – | 196.9 ± 3.1 | –

COCCOC [1,2-dimethoxyethane] + C[S+](C)[O-]
Conditions | excess molar enthalpy [kcal/mol] | molar heat capacity at constant pressure [J/K/mol]
[4], x2 = 0.0577 | 0.0184 ± 0.000478 | –
[4], x2 = 0.1092 | 0.0339 ± 0.000478 | –
[4], x2 = 0.1553 | 0.0461 ± 0.000717 | –
[4], x2 = 0.1969 | 0.0552 ± 0.000717 | –
[4], x2 = 0.2689 | 0.0681 ± 0.000956 | –
[4], x2 = 0.329 | 0.0779 ± 0.000956 | –
[4], x2 = 0.4238 | 0.0863 ± 0.0012 | –
[4], x2 = 0.495 | 0.0875 ± 0.0012 | –
[4], x2 = 0.5953 | 0.087 ± 0.0012 | –
[4], x2 = 0.6882 | 0.0808 ± 0.0012 | –
[4], x2 = 0.7463 | 0.0755 ± 0.000956 | –
[4], x2 = 0.8153 | 0.0633 ± 0.000956 | –
[4], x2 = 0.8547 | 0.055 ± 0.000717 | –
[4], x2 = 0.8982 | 0.0435 ± 0.000717 | –
[4], x2 = 0.9217 | 0.0339 ± 0.000478 | –
[4], x2 = 0.9464 | 0.0251 ± 0.000478 | –
[4], x2 = 0.9725 | 0.0136 ± 0.000239 | –
[5], x2 = 0.1017 | – | 188.6 ± 2.9
[5], x2 = 0.1471 | – | 186.5 ± 2.9
[5], x2 = 0.2718 | – | 180.8 ± 2.8
[5], x2 = 0.3811 | – | 175.8 ± 2.7
[5], x2 = 0.4923 | – | 170.8 ± 2.6
[5], x2 = 0.5507 | – | 168.3 ± 2.6
[5], x2 = 0.5831 | – | 166.9 ± 2.6
[5], x2 = 0.677 | – | 163.1 ± 2.5
[5], x2 = 0.7788 | – | 159.4 ± 2.5
[5], x2 = 0.8414 | – | 157.6 ± 2.4
[5], x2 = 0.9315 | – | 155.5 ± 2.4
[5], x2 = 0.9626 | – | 155 ± 2.4

C1COCO1 [1,3-dioxolane]
Conditions | mass density [kg/m3] | molar heat capacity at constant pressure [J/K/mol] | refractive index
[1], 298.15 K | 1058.79 ± 0.13 | – | –
[1], 308.15 K | 1046.4 ± 0.12 | – | –
[2], 288.15 K | – | 118.8 ± 1.8 | –
[2], 293.15 K | – | 120.3 ± 1.9 | –
[2], 298.15 K | – | 121.7 ± 1.9 | –
[2], 303.15 K | – | 123.3 ± 1.9 | –
[2], 308.15 K | – | 124.4 ± 1.9 | –
[2], 313.15 K | – | 125.3 ± 1.9 | –
[2], 318.15 K | – | 126.8 ± 2 | –
[2], 323.15 K | – | 128.1 ± 2 | –
[2], 328.15 K | – | 129.5 ± 2 | –
[3], 298.15 K | – | – | 1.3983 ± 0.0004
[3], 308.15 K | – | – | 1.3934 ± 0.0004

C1COCO1 [1,3-dioxolane] + C[S+](C)[O-]
Conditions | excess molar enthalpy [kcal/mol] | molar heat capacity at constant pressure [J/K/mol]
[4], x2 = 0.0394 | 0.0146 ± 0.000239 | –
[4], x2 = 0.0757 | 0.0256 ± 0.000478 | –
[4], x2 = 0.1095 | 0.0335 ± 0.000478 | –
[4], x2 = 0.1408 | 0.0409 ± 0.000717 | –
[4], x2 = 0.1974 | 0.0478 ± 0.000717 | –
[4], x2 = 0.2469 | 0.054 ± 0.000717 | –
[4], x2 = 0.3297 | 0.0598 ± 0.000956 | –
[4], x2 = 0.3959 | 0.0629 ± 0.000956 | –
[4], x2 = 0.4959 | 0.0648 ± 0.000956 | –
[4], x2 = 0.5961 | 0.0631 ± 0.000956 | –
[4], x2 = 0.663 | 0.0609 ± 0.000956 | –
[4], x2 = 0.7469 | 0.0562 ± 0.000717 | –
[4], x2 = 0.7973 | 0.0519 ± 0.000717 | –
[4], x2 = 0.8551 | 0.0428 ± 0.000717 | –
[4], x2 = 0.8872 | 0.0354 ± 0.000478 | –
[4], x2 = 0.9219 | 0.0268 ± 0.000478 | –
[4], x2 = 0.9594 | 0.0155 ± 0.000239 | –
[5], x2 = 0.0532 | – | 125.2 ± 1.9
[5], x2 = 0.1036 | – | 126.2 ± 2
[5], x2 = 0.1897 | – | 128.2 ± 2
[5], x2 = 0.3044 | – | 131.3 ± 2
[5], x2 = 0.3922 | – | 133.9 ± 2.1
[5], x2 = 0.5058 | – | 137.3 ± 2.1
[5], x2 = 0.5455 | – | 138.5 ± 2.1
[5], x2 = 0.5936 | – | 139.9 ± 2.2
[5], x2 = 0.7053 | – | 143.4 ± 2.2
[5], x2 = 0.781 | – | 145.9 ± 2.3
[5], x2 = 0.9015 | – | 150.3 ± 2.3
[5], x2 = 0.9431 | – | 152 ± 2.4

C1COCCO1 [1,4-dioxane]
Conditions | mass density [kg/m3] | molar heat capacity at constant pressure [J/K/mol] | refractive index
[1], 298.15 K | 1027.96 ± 0.12 | – | –
[1], 308.15 K | 1016.99 ± 0.11 | – | –
[2], 288.15 K | – | 146.7 ± 2.3 | –
[2], 293.15 K | – | 150 ± 2.3 | –
[2], 298.15 K | – | 151 ± 2.3 | –
[2], 303.15 K | – | 152.1 ± 2.4 | –
[2], 308.15 K | – | 153.7 ± 2.4 | –
[2], 313.15 K | – | 155.3 ± 2.4 | –
[2], 318.15 K | – | 156.5 ± 2.4 | –
[2], 323.15 K | – | 158.4 ± 2.5 | –
[2], 328.15 K | – | 160.2 ± 2.5 | –
[2], 333.15 K | – | 160.4 ± 2.5 | –
[3], 298.15 K | – | – | 1.4202 ± 0.0004
[3], 308.15 K | – | – | 1.4154 ± 0.0004
